Assay [1] has as its target complex III (electron transport chain). The format is biochemical.
The target of assay [2] is complex I (NADH-ubiquinone oxidoreductase). The class given is biochemical.

The term Ki denotes a measure of affinity in units of concentration, obtained from inhibition or displacement. The low end stands for tighter binding, the high end for weaker binding. As to `Cc1ccc(Sc2cccc3[nH]c4nc(N)nc(N)c4c23)cc1` [AG311], the Ki in assay [1] amounted to 32 µM; in assay [2] it was 0.84 µM.
